Experimental data as given in patent publication US9522198B2, “Methods and compositions related to targeting tumors and wounds” (Sanford-Burnham Medical Research Institute, priority 2006, dated 2016).
“Also recorded” adds a separate entry of the source. Ends that are not written are not given here.

Key:
fibrinogen = molecular target: T1, fibrinogen (Homo sapiens, UniProt P02671+P02675+P02679); conditions: reported, Akerman, Pilch et al. 2005; cited from earlier work
T1 sequence (P02671 20-629 limits assumed): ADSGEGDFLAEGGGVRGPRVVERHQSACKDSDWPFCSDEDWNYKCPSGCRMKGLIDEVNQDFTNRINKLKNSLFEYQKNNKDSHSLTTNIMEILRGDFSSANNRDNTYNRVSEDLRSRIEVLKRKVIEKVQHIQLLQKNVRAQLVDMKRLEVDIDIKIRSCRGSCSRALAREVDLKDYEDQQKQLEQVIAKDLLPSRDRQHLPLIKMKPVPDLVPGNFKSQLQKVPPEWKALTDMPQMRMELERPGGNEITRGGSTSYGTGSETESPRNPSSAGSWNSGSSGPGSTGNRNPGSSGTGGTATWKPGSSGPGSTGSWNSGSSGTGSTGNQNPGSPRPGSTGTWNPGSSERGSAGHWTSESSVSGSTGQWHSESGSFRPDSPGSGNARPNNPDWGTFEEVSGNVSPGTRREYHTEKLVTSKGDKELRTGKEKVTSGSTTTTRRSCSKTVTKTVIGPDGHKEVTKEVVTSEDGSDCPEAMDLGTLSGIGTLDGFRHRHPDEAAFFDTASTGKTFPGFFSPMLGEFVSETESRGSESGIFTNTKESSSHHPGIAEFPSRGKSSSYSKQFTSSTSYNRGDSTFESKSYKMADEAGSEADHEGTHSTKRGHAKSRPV
T1 sequence (P02675 31-491): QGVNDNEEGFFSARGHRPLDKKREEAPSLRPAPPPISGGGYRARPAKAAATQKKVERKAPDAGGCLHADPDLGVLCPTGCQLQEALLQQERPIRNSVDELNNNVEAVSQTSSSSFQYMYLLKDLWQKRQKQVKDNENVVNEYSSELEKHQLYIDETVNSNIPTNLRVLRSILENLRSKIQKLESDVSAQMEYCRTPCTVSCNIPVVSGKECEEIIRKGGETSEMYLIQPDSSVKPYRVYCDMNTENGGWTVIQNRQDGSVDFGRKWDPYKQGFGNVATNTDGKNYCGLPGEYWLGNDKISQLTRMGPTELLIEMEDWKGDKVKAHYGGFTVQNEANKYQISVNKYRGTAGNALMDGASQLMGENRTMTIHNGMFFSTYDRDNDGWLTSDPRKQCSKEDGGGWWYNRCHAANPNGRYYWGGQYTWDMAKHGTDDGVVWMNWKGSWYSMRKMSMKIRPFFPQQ
T1 sequence (P02679 27-453): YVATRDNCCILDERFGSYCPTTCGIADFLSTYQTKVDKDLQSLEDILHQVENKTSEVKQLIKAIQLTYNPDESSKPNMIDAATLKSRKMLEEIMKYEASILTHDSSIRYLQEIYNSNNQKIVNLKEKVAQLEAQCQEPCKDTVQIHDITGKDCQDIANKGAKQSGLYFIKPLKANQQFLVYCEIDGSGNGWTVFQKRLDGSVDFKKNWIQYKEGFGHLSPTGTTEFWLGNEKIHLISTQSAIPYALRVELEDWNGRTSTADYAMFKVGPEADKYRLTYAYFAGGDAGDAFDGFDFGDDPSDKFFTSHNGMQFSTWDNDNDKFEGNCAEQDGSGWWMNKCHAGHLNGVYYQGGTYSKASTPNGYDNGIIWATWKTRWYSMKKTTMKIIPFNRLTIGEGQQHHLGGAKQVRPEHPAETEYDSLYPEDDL

fibronectin = conditions: reported, Akerman, Pilch et al. 2005; cited from earlier work
[1] = system: orthotopic MDA-MB-435 xenograft tumors; test: Tumor homing of i.v. injected fluorescein-conjugated peptides, MDA-MB-435 xenografts; format: in vivo, mouse
Source text: To determine whether the CLT peptides would recognize clotted plasma proteins in vivo, the peptides were synthesized as fluorescein conjugates and imaged their accumulation in tumors. Mice bearing orthotopic MDA-MB-435 xenograft tumors were intravenously injected with fluorescein-conjugated CLT1 (n=6), CLT2 (n=4), or a control peptide (n=4) with the sequence KAREC (SEQ ID NO: 5).
B16F1 mouse melanoma, Lewis lung carcinoma, C8161 human melanoma, MDA-MB-435 human breast cancer, and PPC-1 human prostate cancer cells (American Type Culture Collection) were maintained in RPMI or DMEM supplemented with 10% FCS. Human tumor cells (1×10^6) were injected into the mammary fat pad or the flank of nude BALB/c nu/nu mice to induce tumors. MMTV PyMT mice were provided by Dr. Robert Oshima (Burnham Institute for Medical Research, La Jolla, Calif.). The MMTV PyMT mice develop breast cancer under the influence of a polyoma middle T antigen driven by the mouse tumor virus promoter (Siegel, P. M., Ryan, E. D., Cardiff, R. D., Muller W. J. (1999) EMBO J., 18, 2149-64). B16F1 tumors induced by injecting 1×10^6 cells subcutaneously were grown in the flank of fibrinogen knock-out mice (Suh, T. T., Holmback, K., Jensen, N. J., Daugherty, C. C., Small, K., Simon, D. I., Potter, S., & Degen, J. L. (1995) Genes Dev. 9, 2020-2033), and of transgenic plasma fibronectin-deficient C57BL/6-Fn(f1/f1) Mx-Cre^+ (Sakai, T., Johnson, K. J., Murozono, M., Sakai, K., Magnuson, M. A., Wieloch, T., Cronberg, T., Isshiki, A., Erickson, H. P., & Fassler R. (2001) Nat. Med. 7, 324-30) and their wild type littermates. Deletion of the fibronectin gene in the liver was induced by poly(I):poly(C) (Yi, M., Sakai, T., Fassler, R., & Ruoslahti, E. (2003) Proc. Natl. Acad. Sci. USA. 100, 11435-11438). Frozen human tissues from clinical breast cancers were provided by the Western Division of the NCI Cooperative Human Tissue Network (Vanderbilt University Medical Center, Nashville, Tenn.).
Peptides were synthesized and conjugated to fluorescein isothiocyanate as described (Laakonen et al. PNAS 2004), and cyclized by exposure to air.
Imaging under a blue light, and examination of the distribution of fluorescein-conjugated peptides after tail vein injection have been described (Hoffman, R. M. (2005) Nature Reviews Cancer 5, 796-806; Laakkonen, P., Akerman, M. E., Biliran, H., Yang, M., Ferrer, F., Karpanen, T., Hoffman, R. M., & Ruoslahti E. (2004) Proc. Natl. Acad. Sci. USA 101, 9381-6).
The imaging methods are briefly described as follows: A Leica fluorescence stereomicroscope, model LZ12, equipped with a 50-W mercury lamp, was used for high-magnification imaging. Selective excitation of GFP was produced through a D425y60 band-pass filter and 470 DCXR dichroic mirror. Emitted fluorescence was collected through a long-pass filter GG475 (Chroma Technology, Brattleboro, Vt.) on a Hamamatsu C5810 3-chip cooled color charge-coupled device camera (Hamamatsu Photonics Systems, Bridgewater, N.J.). Images were processed for contrast and brightness and analyzed with the use of IMAGE PRO PLUS 3.1 software (Media Cybernetics, Silver Springs, Md.). Images of 1,024×724 pixels were captured directly on an IBM PC or continuously through video output on a high-resolution Sony VCR model SLV-R1000 (Sony, Tokyo). Imaging at lower magnification that visualized the entire animal was carried out in a light box illuminated by blue light fiber optics (Lightools Research, Encinitas, Calif.) and imaged by using the thermoelectrically cooled color charge-coupled device camera, as described above (Yang, M., Baranov, E., Jiang, P., Sun, F-X., Li, X-M., Li, L., Hasegawa, S., Bouvet, M., Al-Tuwaijri, M., Chishima, T., et al (2000) Proc. Natl. Acad. Sci. USA 97, 1206-11).
The mice were perfused through the heart 3 hours after the peptide injection and tissues removed for examination. […]

mouse femoral artery = test: Homing to wire-injured femoral artery; format: in vivo
Procedure: (§1) The wire injury of the mouse femoral artery was induced as previously described (Komatsu, M. & Ruoslahti, E. (2005) Nat Med. (2005) 11:1346-1350). Thirty minutes after the wire injury, 250 μg of fluorescein-conjugated peptides were injected i.v. Muscle injuries were induced in mice by applying a crush injury to the quadriceps muscle, and 500 μg fluorescein-conjugated peptides were injected i.v. 48 hours later. Skin incisions were studied similarly. The mice were perfused through the heart 4 hours after the peptide injection, and tissues were excised, fixed in 4% paraformaldehyde, and embedded in OCT.

quadriceps muscle = test: Homing to muscle crush injury; format: in vivo, mouse
Procedure: as §1

skin = test: Homing to skin incision; format: in vivo, mouse
Procedure: as §1

[2] = system: human umbilical venous endothelial cells (HUVECs); format: cell-based; conditions: HUVECs
Source text: CLT1 contains a sequence of three consecutive hydrophobic residues, LII (leucine-isoleucine-isoleucine). This motif is very similar to the VII sequence (V, valine) which causes proteins to form large insoluble aggregates (Esteras-Chopo et al. 2005). […] The ability of CLT1 to aggregate proteins correlates with its cytotoxicity for human umbilical venous endothelial cells (HUVECs).

mitochondrial membranes = conditions: concentration of 10 μM; cited from earlier work
[3] = 500 μg fluorescein-conjugated peptide i.v., 3 h

Anginex
aggregate formation in presence of fibrinogen (fibrinogen): form aggregates
aggregate formation in presence of fibronectin (fibronectin): form aggregates

CNAGESSKNC (also: cyclic, ring type not given here, fluorescein conjugate, site not given here) [CLT2, cyclic decapeptide from phage library screened on plasma clots; tested as fluorescein conjugate]
fluorescence in control / healthy organs [1, 3]: not in control organs
fluorescence in tumors, whole tissues under blue light [1, 3]: intense fluorescence; also recorded: strong fluorescence
histological distribution of peptide fluorescence within the tumor ([1]; fluorescein-conjugated peptide i.v., 3 h, 400×): distributed in a network pattern
tumor homing / fluorescence on co-injection with unlabeled CLT2 ([1]; unlabeled CLT2 in 5 fold excess): strongly reduced
homing to normal (intact) femoral artery (mouse femoral artery; uninjured): not to a normal femoral artery
homing to injured femoral artery (mouse femoral artery; wire injury 30 min earlier, 250 μg i.v.): homes
homing to muscle crush injury (quadriceps muscle; injury 48 hours earlier, 500 μg i.v.): accumulate
homing to normal muscle (quadriceps muscle; uninjured): negative
homing to skin incision (skin; incision 48 hours earlier): accumulate
homing to normal skin (skin; uninjured): negative
cytotoxicity for endothelial cells [2]: nor cytotoxic

D(KLAKLAK)2 (KLAKLAKKLAKLAK; D-amino acids) [antimicrobial peptide]
mitochondrial swelling (mitochondrial membranes): marked mitochondrial swelling

KAREC (also: fluorescein conjugate, site not given here) [reference compound]
fluorescence in tumors, whole tissues under blue light [1, 3]: essentially no fluorescence
